This note sets out measurements from paper PMC11956013, “Structure–Activity Relationships and Evaluation of 2-(Heteroaryl-cycloalkyl)-1H-indoles as Tauopathy Positron Emission Tomography Radiotracers” (Journal of Medicinal Chemistry, 2025).

Test [1] deals with Non-Selective Rat Glycine Ion Channel (Rattus norvegicus, UniProt P07727). In words: Non-Selective Rat Glycine Ion Channel Strychnine Mass Spectrometry Binding Assay, Cerep.
Test [2] addresses Adenosine Guinea Pig Transporter (Cavia porcellus, UniProt H0V4R7). The experiment in a line: Adenosine Guinea Pig Transporter Mass Spectrometry Binding (Antagonist Ligand) Assay, Cerep. To be noted: reference compound.

Chain of Adenosine Guinea Pig Transporter (H0V4R7 1-461): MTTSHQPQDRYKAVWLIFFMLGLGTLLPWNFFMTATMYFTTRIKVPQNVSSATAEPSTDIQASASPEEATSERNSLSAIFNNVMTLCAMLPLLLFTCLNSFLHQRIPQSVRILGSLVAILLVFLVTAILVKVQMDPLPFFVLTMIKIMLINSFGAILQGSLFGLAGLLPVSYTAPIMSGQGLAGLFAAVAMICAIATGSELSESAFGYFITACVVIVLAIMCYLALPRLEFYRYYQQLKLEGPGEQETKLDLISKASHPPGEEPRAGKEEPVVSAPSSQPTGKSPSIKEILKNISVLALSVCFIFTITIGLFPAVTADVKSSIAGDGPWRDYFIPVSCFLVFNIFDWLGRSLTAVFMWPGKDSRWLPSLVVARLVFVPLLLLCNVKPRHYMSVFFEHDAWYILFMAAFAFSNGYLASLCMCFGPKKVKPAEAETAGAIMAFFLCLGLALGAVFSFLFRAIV
Chain of Non-Selective Rat Glycine Ion Channel (P07727 29-457): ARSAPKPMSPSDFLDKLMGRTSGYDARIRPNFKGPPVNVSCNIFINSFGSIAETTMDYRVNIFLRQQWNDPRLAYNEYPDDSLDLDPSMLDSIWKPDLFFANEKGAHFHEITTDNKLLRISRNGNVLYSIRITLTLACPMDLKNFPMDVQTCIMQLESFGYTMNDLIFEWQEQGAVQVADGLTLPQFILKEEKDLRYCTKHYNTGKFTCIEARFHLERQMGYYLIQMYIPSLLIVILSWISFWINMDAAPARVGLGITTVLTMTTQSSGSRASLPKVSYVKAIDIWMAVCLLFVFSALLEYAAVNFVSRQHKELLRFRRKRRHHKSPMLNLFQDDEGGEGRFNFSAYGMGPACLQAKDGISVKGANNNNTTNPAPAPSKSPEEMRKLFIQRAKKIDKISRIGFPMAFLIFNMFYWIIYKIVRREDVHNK
Chain of Non-Selective Rat Glycine Ion Channel (P20781 23-496 partner): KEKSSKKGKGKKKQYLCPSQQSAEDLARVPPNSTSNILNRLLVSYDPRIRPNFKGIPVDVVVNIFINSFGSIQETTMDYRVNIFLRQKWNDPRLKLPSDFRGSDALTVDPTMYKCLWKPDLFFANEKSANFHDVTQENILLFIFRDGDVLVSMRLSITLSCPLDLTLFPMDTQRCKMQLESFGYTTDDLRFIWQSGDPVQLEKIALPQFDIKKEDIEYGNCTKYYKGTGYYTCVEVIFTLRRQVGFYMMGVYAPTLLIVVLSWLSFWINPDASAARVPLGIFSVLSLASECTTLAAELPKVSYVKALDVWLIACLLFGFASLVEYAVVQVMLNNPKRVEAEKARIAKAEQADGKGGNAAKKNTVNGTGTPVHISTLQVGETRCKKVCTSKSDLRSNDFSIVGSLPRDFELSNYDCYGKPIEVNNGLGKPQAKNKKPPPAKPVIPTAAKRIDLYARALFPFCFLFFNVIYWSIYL

As to `N=C(N)N/N=C/c1c(Cl)cccc1Cl` [guanabenz], in test [1], the “nH, Specific binding” value was determined as 1.024.
Take `COc1cc(C(=O)OCCCN2CCCN(CCCOC(=O)c3cc(OC)c(OC)c(OC)c3)CC2)cc(OC)c1OC` [Dilazep]: the “nH, Specific binding” value in test [2] was 1.337.
